Test results published in patent US20160376374A1, “ANTIBODIES TO CEACAM1 AND KINASE INHIBITORS FOR TREATING BRAF-MUTATED CELLS” (TEL HASHOMER MEDICAL RESEARCH INFRASTRUCTURE AND SERVICES …, priority 2014, published 2016).

Experiments:
[1] = system: CEACAM1 expression on sk-mel-2 cells (W.T. B-Raf, mutated N-Ras); assay: CEACAM1 expression on cells by FACS, W.T. B-Raf / mutated N-Ras cells; conditions: sk-mel-2 (W.T. B-Raf, mutated N-Ras); 1 μM; FIG. 3C
Method: At each time point, CEACAM1 expression on the cells was determined by FACS. Volume equivalents of DMSO (vehicle) were used as control.

[2] = system: vemurafenib-resistant B-Raf V600E (624mel) cells; assay: MAPK activity by immunoblotting for phosphorylated ERK1/2, vemurafenib-resistant cells; type: cell-based; conditions: vemurafenib-resistant 624mel; 160 nM, 24 hours; FIG. 4B
Method: Two vemurafenib-sensitive B-Raf V600E cell samples (526mel, 624mel) and vemurafenib-resistant cell lines derived therefrom were incubated for 2 days with 1 μM vemurafenib. Cells were then analyzed for CEACAM1 protein expression by FACS as described above. Vemurafenib-resistant cell lines were generated by gradual increase of the inhibitor's concentration in culture, up to 0.32 μM.
(§1) MAPK activity was measured in vemurafenib-sensitive and vemurafenib-resistant B-Raf V600E (624mel) cell samples by immunoblotting for phosphorylated ERK1/2 (pERK, Thr202/Tyr204), total ERK1/2 and actin after 24 hours of exposure to 160 nM vemurafenib.

[3] = system: B-Raf W.T. (076mel, 013mel) cells; assay: MAPK activity by immunoblotting for phosphorylated ERK1/2, B-Raf W.T. cells; type: cell-based; conditions: B-Raf W.T. cells 076mel, 1 μM, 48 hours, FIG. 2
Method: (§2) MAPK activity was measured in B-Raf V600E (624mel, sk-mel-5) and B-Raf W.T. (076mel, 013mel) cell samples by immunoblotting for phosphorylated ERK1/2 (pERK, Thr202/Tyr204), total ERK1/2 and actin after 48 hours of exposure to vemurafenib (1 μM).

[4] = system: B-Raf V600E 526mel melanoma cells; assay: Determined IC50 of vemurafenib used to generate resistant melanoma cells; type: cell-based
Method: B-Raf V600E 526mel melanoma cells were cultured in the presence of 1 μM vemurafenib. Cultivation was performed in RPMI 1640 supplemented with 1 mM Na-Pyruvate, 1 mM Pen-Strep, 1 mM L-Glutamine, 1 mM non-essential amino acids, and 10% heat inactivated fetal calf serum. […] Cells were then tested for CEACAM1 expression using MRG1 (murine antibody to human CEACAM1) in flow cytometry as described above. Total RNA was extracted with TRIZOL and cDNA was generated with a reverse transcriptase, according to routine protocols.

[5] = system: CEACAM1 expression on B-Raf W.T. cells (076mel); assay: CEACAM1 expression on cells by FACS, W.T. B-Raf cells; type: cell-based, human; conditions: 076mel (W.T. B-Raf); 0.1 μM and 1 μM, 2 to 48 hours; FIG. 3A
[6] = system: B-Raf V600E cell samples (526mel, 624mel) with cytotoxic T cells; assay: Killing of melanoma cells by cytotoxic T cells, LDH release; type: cell-based; conditions: pre-incubated with 1 μM, overnight, effector-target ratio 5:1, FIG. 7
Method: Melanoma cells were pre-incubated with 1 μM vemurafenib and then co-incubated overnight with HLA-A2 matched antigen-matched T cells in effector-target ratio of 5:1. Cell killing was determined by LDH release.

[7] = system: B-Raf V600E (624mel, sk-mel-5) cells; assay: MAPK activity by immunoblotting for phosphorylated ERK1/2, B-Raf V600E cells; type: cell-based
Method: as §2, §1

[8] = system: CEACAM1 expression on B-Raf V600E cells (526mel, 624mel); assay: CEACAM1 expression on cells by FACS, mutated B-Raf cells; type: cell-based, human
Method: Total RNA was extracted from 1.0*10^6 melanoma cells with TRIZOL. cDNA was generated with standard reverse transcriptase. Real time PCR was performed with CEACAM1-specific primers and compared to glyceraldehyde 3-phosphate dehydrogenase (GAPDH) tested as a control. Cycle threshold (Ct) values above 36 were considered as minimal or no expression. B-Raf genotype was determined by direct sequencing of amplified fragment from genomic DNA that contains the codon for position 600 of the B-Raf protein. Statistical analysis of the correlation between CEACAM1 expression (negative or positive) with the mutation status (positive=V600E, or negative=wild type) was performed by Fisher exact test.
Cells were then tested for CEACAM1 expression using MRG1 (murine antibody to human CEACAM1) in flow cytometry as described above. Total RNA was extracted with TRIZOL and cDNA was generated with a reverse transcriptase, according to routine protocols.

In the case of CCCS(=O)(=O)Nc1ccc(F)c(C(=O)c2c[nH]c3ncc(-c4ccc(Cl)cc4)cc23)c1F [vemurafenib, N-(3-{[5-(4-chlorophenyl)-1H-pyrrolo[2,3-b]pyridin-3-yl]carbonyl}-2,4-difluorophenyl)propane-1-sulfonamide], the “CEACAM1 expression levels on cells” value [1] is reported as “no effect”, the “MAPK activity (phosphorylated ERK1/2)” value [2] is reported as “practically uninterrupted” and the “phosphorylation of ERK1/2 (pERK, Thr202/Tyr204)” value [3] is reported as “no substantial effect”. For the same molecule, the IC50 [4] was 0.64 nM, the “CEACAM1 expression levels on cells” value [5] was “did not have any effect” and the “sensitization of melanoma cells to cytotoxic T cells (cell killing by LDH release)” value [6] was “significantly sensitizes melanoma cells to cytotoxic T cells”. For the same molecule, the “phosphorylation of ERK1/2 (pERK, Thr202/Tyr204)” value ([7]; B-Raf V600E cells 624mel, sk-mel-5, 1 μM, 48 hours, FIG. 2) was “almost completely abolishes the phosphorylation of ERK1/2”, the “phosphorylation of ERK1/2 (pERK, Thr202/Tyr204)” value ([7]; vemurafenib-sensitive 624mel, 160 nM, 24 hours, FIG. 4B) was “almost completely abolishes the phosphorylation of ERK1/2” and the “CEACAM1 expression levels on cells” value ([8]; 526mel, 624mel (mutated B-Raf), 0.1 μM and 1 μM, 2 to 48 hours, FIG. 3A-B) was “dose-dependent effect”. The CEACAM1 expression ([8]; B-Raf V600E 526mel melanoma cells, 1 μM, flow cytometry with MRG1, FIG. 5) was “down regulates CEACAM1 expression”.
